The values that follow come from ChEMBL document CHEMBL1127768, “Possible antineoplastic agents : part 14 - synthesis, activity and QSAR studies of some 1-(substituted benzenesulphonyl)-5-oxopyrrolidine-2-carboxylic acid hydrazides” (1994).

Common to all, as to assay type: functional
The species entered for assay [1] is Mus musculus. Briefly: Observed biological activity converted into logit model against Ehrlich ascites carcinoma in mice.
For assay [2], the system named is Mus musculus. Briefly: In vivo antineoplastic activity against Ehrlich ascites carcinoma (EAC) cells in mice at 50 mg/kg body weight upon intraperitoneal administration. The conditions noted are these: ip.
The subject of assay [3] is Mus musculus. Briefly: In vivo antineoplastic activity against Ehrlich ascites carcinoma fluid in mice at 50 mg/kg body weight upon intraperitoneal administration. The note with it: ip.
Assay [4] concerns Mus musculus. Description: In vivo antineoplastic activity against Ehrlich ascites carcinoma (EAC) cells in mice at 1 mg/kg body weight upon intraperitoneal administration. The note with it: ip.
Assay [5] concerns Mus musculus. Briefly: In vivo antineoplastic activity against Ehrlich ascites carcinoma fluid in mice at 1 mg/kg body weight upon intraperitoneal administration. The conditions noted are these: ip.

Usually inhibition in vivo stands for how much of the control response was suppressed. Low values mean little suppression, high ones strong suppression.

Turning to `Cc1ccc(S(=O)(=O)N2C(=O)CCC2C(=O)NNc2ccccc2)cc1` (stereo unspecified), the logit activity in assay [1] amounted to 1.89. For the same compound, the inhibition in vivo at 50 mg/kg in assay [2] was found to be 77.6%; in assay [3] it was 64.3%.
Compound `O=C(NNc1ccccc1)C1CCC(=O)N1S(=O)(=O)c1ccc(Cl)c(Cl)c1` (stereo unspecified) returned a logit activity in assay [1] of 1.16. The inhibition in vivo at 50 mg/kg in assay [2] is 66.8%; in assay [3] it was 57.7%.
The matching figures for `NNC(=O)C1CCC(=O)N1S(=O)(=O)c1ccccc1` (stereo unspecified): -0.549, 40.3% and 44.4%.
On to `CO[C@@]12[C@H](COC(N)=O)C3=C(C(=O)C(C)=C(N)C3=O)N1C[C@@H]1N[C@@H]12` [MITOMYCIN], for which the inhibition in vivo at 1 mg/kg in assay [4] and in assay [5] was 100% each time.
For the compound `Cc1ccc(S(=O)(=O)N2C(=O)CCC2C(=O)NN)cc1` (stereo unspecified), the logit activity in assay [1] is 0.61. For the same compound, the inhibition in vivo at 50 mg/kg in assay [2] worked out at 50.1%; in assay [3], 52.8%.
The matching figures for `O=C(NNc1ccccc1)C1CCC(=O)N1S(=O)(=O)c1ccc(Cl)cc1` (stereo unspecified): 3.13, 74.3% and 71.4%.
The matching figures for `O=C(NNc1ccccc1)C1CCC(=O)N1S(=O)(=O)c1ccccc1` (stereo unspecified): 5.59, 79% and 85.7%.
The matching figures for `NNC(=O)C1CCC(=O)N1S(=O)(=O)c1ccc(Cl)cc1` (stereo unspecified): 1.25, 64.9% and 61.1%.
The compound `NNC(=O)C1CCC(=O)N1S(=O)(=O)c1ccc(Cl)c(Cl)c1` (stereo unspecified) came in with a logit activity in assay [1] of 1.03. Further, the inhibition in vivo at 50 mg/kg amounted to 59.3% in assay [2] and 58.3% in assay [3].
